# Assay results reported in the supplement of paper PMC10307832.
# Experiments:
# [1] = compound: COC1=CC=C(C=C1)CN2C=CC3=C2C=C(C=C3)C(=O)NO + Cc1nc(Nc2ncc(C(=O)Nc3c(C)cccc3Cl)s2)cc(N2CCN(CCO)CC2)n1 [Dasatinib] (partner 0.075 µM); test: relative viability (nuclei count vs DMSO), 5 days (fraction); higher = more cells survive
# Outline: (§1)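 Lung cancer cell lines in 1536-well plates got either a single drug or a fixed anchor-drug dose together with five library-drug doses (not always all listed) in √10 steps, by pin tool, on the day after seeding. Nuclei were counted after 5 days, and relative viability is the treated-to-vehicle ratio of nuclei counts. Values are medians of duplicate plates.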
# [2] = compound: COC1=CC=C(C=C1)CN2C=CC3=C2C=C(C=C3)C(=O)NO + CCNC(=O)c1noc(-c2cc(C(C)C)c(O)cc2O)c1-c1ccc(CN2CCOCC2)cc1 [Luminespib] (partner 0.01 µM); test: as above
# Outline: as §1
Cell Line,relative viability ([1]; first compound 0.08 µM),relative viability ([1]; first compound 0.253 µM),relative viability ([1]; first compound 0.8 µM),relative viability ([1]; first compound 2.53 µM),relative viability ([1]; first compound 8 µM),relative viability ([2]; first compound 0.08 µM),relative viability ([2]; first compound 0.253 µM),relative viability ([2]; first compound 0.8 µM),relative viability ([2]; first compound 2.53 µM),relative viability ([2]; first compound 8 µM)
NCI-H460,0.545,0.556,0.553,0.48,0.343,0.0291,0.0369,0.0487,0.0276,0.0281
NCI-H522,–,0.904,1.12,0.781,0.765,1.01,1.13,1.18,1.06,1.22
